Assay results from patent US20240336596A1, “PARP7 INHIBITOR AND USE THEREOF” (NOVOSTAR PHARMACEUTICALS, LTD., priority 2022, published 2024).
pIC50: −log10 of the molar value.

Test system: NCI-H1373 cancer cells
Assay: NCI-H1373 cancer cell growth inhibition (CellTiter-Glo, 144 hours)
Assay type: cell-based
Details: Homo sapiens, 144 hours culture
Procedure: Promega CellTiter-Glo cell activity assay kit (Item No.: Promege-G7573) was used to determine the cell activity. 90 μL NCI-H1373 cell suspension (ATCC, catalog No. CRL-5866, batch No. 58078716) was spread into the pores of the 96-well plate with 3500 cells per well. After 24 hours, the 10 μL prepared 10× compound working solution was added into the pores of the cell culture plate with a final concentration of 10 μM. 3.3333 μM, 1.1111 μM, 0.3704 μM, 0.1235 μM, 0.0412 μM, 0.0137 μM, 0.0046 μM, 0.0015 μM, 0.0005 μM, 10 μL DMSO was added to the solvent control, and the final concentration of DMSO was 0.2%. The 0-day plates were collected for analysis, and after 144 hours of culture, the growth condition of cells was detected according to the instructions of CellTiter-Glo cell activity assay kit. Add 50 μL of CellTiter-Glo working liquid into each hole of the cell culture plate, shake the plates in the dark for 2 minutes until cell lysis, and place at room temperature for 10 minutes to detect the luminous signal (RUL) of each cell hole on the 2104En Vision board reader.
Calculation formula: Growth inhibition rate %=(1−(RLU compound−RLU Day0)/(RLU solvent control−RLU Day0))*100%. The dose-response curves of each compound were fitted by GraphPad Prism 8 to obtain IC50 values.
For the matter, IC50 values less than 0.1 μM are labeled “+++”, values from 0.1 to 1 μM are labeled “++”, and values greater than 1 to 10 μM are labeled “+”.

Structure (SMILES) | pIC50
C[C@@H](CONC(=O)C=C1CCN(c2ncc(C(F)(F)F)cn2)CC1)Nc1cn[nH]c(=O)c1C(F)(F)F [Example 20, (S)—N-(2-((6-oxo-5-(trifluoromethyl)-1,6-dihydropyridazin-4-yl)amino)propoxy)-2-(1-(5-(trifluoromethyl)pyrimidin-2-yl)piperidin-4-ylidene)acetamide] | 5.00 to 6.00
CC1=C(CC(=O)NOC[C@H](C)Nc2cn[nH]c(=O)c2C(F)(F)F)CCN(c2ncc(C3CC3)cn2)C1 [Example 31, (S)-2-(1-(5-cyclopropylpyrimidin-2-yl)-5-methyl-1,2,3,6-tetrahydropyridin-4-yl)-N-(2-((6-oxo-5-(trifluoromethyl)-1,6-dihydropyridazin-4-yl)amino)propoxy)acetamide] | 6.00 to 7.00
C[C@@H](CONC(=O)CC1CCN(c2ccc(C(F)(F)F)cn2)CC1)Nc1cn[nH]c(=O)c1C(F)(F)F [Example 32, (S)—N-(2-((6-oxo-5-(trifluoromethyl)-1,6-dihydropyridazin-4-yl)amino)propoxy)-2-(1-(5-(trifluoromethyl)pyridin-2-yl)piperidin-4-yl)acetamide] | 6.00 to 7.00
C[C@@H](CONC(=O)CC1CCN(c2ccc(C#N)cn2)CC1)Nc1cn[nH]c(=O)c1C(F)(F)F [Example 34, (S)-2-(1-(5-cyanopyridin-2-yl)piperidin-4-yl)-N-(2-((6-oxo-5-(trifluoromethyl)-1,6-dihydropyridazin-4-yl)amino)propoxy)acetamide] | 6.00 to 7.00
C[C@@H](CONC(=O)CC1CCN(c2ncc3c(n2)CCC3=O)CC1)Nc1cn[nH]c(=O)c1C(F)(F)F [Example 42, (S)—N-(2-((6-oxo-5-(trifluoromethyl)-1,6-dihydropyridazin-4-yl)amino)propoxy)-2-(1-(5-oxo-6,7-dihydro-5H-cyclopenta(d)pyrimidin-2-yl)piperidin-4-yl)acetamide] | 5.00 to 6.00
C[C@@H](CON(C)C(=O)CC1CCN(c2ncc(C(F)(F)F)cn2)CC1)Nc1cn[nH]c(=O)c1C(F)(F)F [Example 45, (S)—N-methyl-N-(2-((6-oxo-5-(trifluoromethyl)-1,6-dihydropyridazin-4-yl)amino)propoxy)-2-(1-(5-(trifluoromethyl)pyrimidin-2-yl)piperidin-4-yl)acetamide] | 5.00 to 6.00
C[C@@H](CONS(=O)(=O)CC1CCN(c2ncc(C(F)(F)F)cn2)CC1)Nc1cn[nH]c(=O)c1C(F)(F)F [Example 47, (S)—N-(2-((6-oxo-5-(trifluoromethyl)-1,6-dihydropyridazin-4-yl)amino)propoxy)-1-(1-(5-(trifluoromethyl)pyrimidin-2-yl)piperidin-4-yl)methanesulfonamide] | 5.00 to 6.00
C[C@@H](CONC(=O)C1(C2CCN(c3ncc(C(F)(F)F)cn3)CC2)CC1)Nc1cn[nH]c(=O)c1C(F)(F)F [Example 50, (S)—N-(2-((6-oxo-5-(trifluoromethyl)-1,6-dihydropyridazin-4-yl)amino)propoxy)-1-(1-(5-(trifluoromethyl)pyrimidin-2-yl)piperidin-4-yl)cyclopropanecarboxamide] | 5.00 to 6.00
CC1CN(c2ncc(C(F)(F)F)cn2)CCC1CC(=O)NOC[C@H](C)Nc1cn[nH]c(=O)c1C(F)(F)F (stereo partly drawn) [Example 52, 2-(3-methyl-1-(5-(trifluoromethyl)pyrimidin-2-yl)piperidin-4-yl)-N—((S)-2-((6-oxo-5-(trifluoromethyl)-1,6-dihydropyridazin-4-yl)amino)propoxy)acetamide] | 5.00 to 6.00
C[C@@H](CONC(=O)C[C@H]1CCN(c2ncc(C(F)(F)F)cn2)C[C@H]1O)Nc1cn[nH]c(=O)c1C(F)(F)F [Example 54, 2-((3S,4R)-3-hydroxy-1-(5-(trifluoromethyl)pyrimidin-2-yl)piperidin-4-yl)-N—((S)-2-((6-oxo-5-(trifluoromethyl)-1,6-dihydropyridazin-4-yl)amino)propoxy)acetamide] | 5.00 to 6.00
C[C@@H](CONC(=O)C[C@H]1CCN(c2ncc(C(F)(F)F)cn2)C[C@@H]1O)Nc1cn[nH]c(=O)c1C(F)(F)F [Example 55, 2-((3R,4R)-3-hydroxy-1-(5-(trifluoromethyl)pyrimidin-2-yl)piperidin-4-yl)-N—((S)-2-((6-oxo-5-(trifluoromethyl)-1,6-dihydropyridazin-4-yl)amino)propoxy)acetamide] | 5.00 to 6.00
C[C@@H](CONC(=O)CN1CCC2(CCN(c3ncc(C(F)(F)F)cn3)CC2)C1)Nc1cn[nH]c(=O)c1C(F)(F)F [Example 56, (S)—N-(2-((6-oxo-5-(trifluoromethyl)-1,6-dihydropyridazin-4-yl)amino)propoxy)-2-(8-(5-(trifluoromethyl)pyrimidin-2-yl)-2,8-diazaspiro(4.5)decan-2-yl)acetamide] | 5.00 to 6.00
C[C@@H](CONC(=O)CC1CCN(c2ncc3c(n2)CC[C@@]3(C)O)CC1)Nc1cn[nH]c(=O)c1C(F)(F)F [Example 61] | 5.00 to 6.00
[2H]C(C(=O)NOC[C@H](C)Nc1cn[nH]c(=O)c1C(F)(F)F)C1=CCN(c2ncc(C(F)(F)F)cn2)CC1 (stereo partly drawn) [Example 62] | 5.00 to 6.00

Target: T1, recombinant human PARP7 protein (Homo sapiens, UniProt Q7Z3E1)
T1 construct: purchased Abcam ab271651
T1 sequence (Q7Z3E1 1-657): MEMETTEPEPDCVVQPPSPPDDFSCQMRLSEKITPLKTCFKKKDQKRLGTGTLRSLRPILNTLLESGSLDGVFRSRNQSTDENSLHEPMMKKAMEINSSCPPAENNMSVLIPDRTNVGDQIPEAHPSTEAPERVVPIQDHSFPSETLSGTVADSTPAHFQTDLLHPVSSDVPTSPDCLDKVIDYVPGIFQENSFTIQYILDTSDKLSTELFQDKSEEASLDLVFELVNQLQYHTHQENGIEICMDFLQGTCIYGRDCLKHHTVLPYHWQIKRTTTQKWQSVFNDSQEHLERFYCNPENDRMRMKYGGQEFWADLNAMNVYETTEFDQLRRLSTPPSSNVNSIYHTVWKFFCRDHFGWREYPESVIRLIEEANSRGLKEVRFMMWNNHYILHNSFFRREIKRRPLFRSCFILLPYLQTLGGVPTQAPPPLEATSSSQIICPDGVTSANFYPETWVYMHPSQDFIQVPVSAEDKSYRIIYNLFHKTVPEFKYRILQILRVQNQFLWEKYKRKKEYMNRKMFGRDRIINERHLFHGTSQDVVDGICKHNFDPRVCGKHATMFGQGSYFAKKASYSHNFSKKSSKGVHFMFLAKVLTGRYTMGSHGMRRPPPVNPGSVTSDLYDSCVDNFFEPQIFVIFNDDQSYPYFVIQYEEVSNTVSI
Assay: Inhibition of PARP7 biological enzyme activity (histone-coated plate, Biotin-NAD+, chemiluminescence)
Assay type: biochemical
Details: recombinant human PARP7, Biotin-NAD+ substrate
Procedure: The recombinant human PARP7 protein kit (Abcam, catalog number ab271651) was used for the assay. According to the kit instructions, 30 μL of histone coating solution (1.5 μg/mL) was first applied to the 384 well holes of the reaction plate and coated at 4° C. for 2 hours. Then, the histone coated solution was washed off, and 50 μL sealing buffer was added to each well, and the sealing buffer was washed off after incubation at 25° C. for 60 minutes. 1000 times the concentration of the compound was 10 configured and diluted from 1 mM to 0.05 μM, and the configured compound was transferred to 384-well plates with 25 nL per well using Echo. The final concentration of the compound in the reaction system was 1000 nM, 333.33 nM, 111.11 nM, 37.03 nM, 12.34 nM, 4.11 nM, 1.37 nM, 0.45 nM, 0.15 nM, 0.05 nM, which was used as the test hole. At the same time, 25 nL DMSO was added to the negative control well and the positive control well. The PARP7 enzyme solution with a concentration of 1.67 times was prepared, and the PARP7 enzyme solution was added to the test hole and the positive control hole with 15 μL each, while the negative control hole was added with 15 μL base Buffer, and incubated at 25° C. for 15 minutes. Then 10 μL 2.5 times Biotin-NAD+ substrate solution was added and incubated at 25° C. for 60 min. After the reaction solution was washed off, the 384-well reaction plates were treated with closed buffer solution diluted with streptavidin-HRP (1:500), each well was 30 μL, and incubated at 25° C. for 30 min. After the HRP buffer was washed off, 30 μL HRP chemiluminescent substrate mixture was added to each well, and the luminescence signal (RLU) of each well was detected by Envision. Calculation formula: Inhibition rate %=(average positive control-RLU compound)/(average positive control-average negative control))*100%. The dose-response curves of each compound were fitted by GraphPad Prism 8 to get IC50 values. IC50 values less than 0.01 μM are labeled as “+++”, IC50 values from 0.01 to 0.1 µM are labeled as “++”, and IC50 values greater than 0.1 to 10.0 μM are labeled as “+”.

Structure (SMILES) | pIC50
C[C@@H](CNOCC(=O)N1CCN(c2ncc(C(F)(F)F)cn2)CC1)Nc1cn[nH]c(=O)c1C(F)(F)F [Example 1, (S)-5-((1-((2-oxo-2-(4-(5-(trifluoromethyl)pyrimidin-2-yl)piperazin-1-yl)ethoxy)amino)propan-2-yl)amino)-4-(trifluoromethyl)pyridazin-3(2H)-one] | > 8.00
C[C@@H](CN(C)OCC(=O)N1CCN(c2ncc(C(F)(F)F)cn2)CC1)Nc1cn[nH]c(=O)c1C(F)(F)F [Example 2, (S)-5-((1-(methyl(2-oxo-2-(4-(5-(trifluoromethyl)pyrimidin-2-yl)piperazin-1-yl)ethoxy)amino)propan-2-yl)amino)-4-(trifluoromethyl)pyridazin-3(2H)-one] | > 8.00
CCN(C[C@H](C)Nc1cn[nH]c(=O)c1C(F)(F)F)OCC(=O)N1CCN(c2ncc(C(F)(F)F)cn2)CC1 [Example 3, (S)-5-((1-(ethyl(2-oxo-2-(4-(5-(trifluoromethyl)pyrimidin-2-yl)piperazin-1-yl)ethoxy)amino)propan-2-yl)amino)-4-(trifluoromethyl)pyridazin-3(2H)-one] | 7.00 to 8.00
C[C@@H](CN(C)OCC(=O)N1CCN(c2ncc(C#N)cn2)CC1)Nc1cn[nH]c(=O)c1C(F)(F)F [Example 4, (S)-2-(4-(2-((methyl(2-((6-oxo-5-(trifluoromethyl)-1,6-dihydropyridazin-4-yl)amino)propyl)amino)oxy)acetyl)piperazin-1-yl)pyrimidine-5-carbonitrile] | 7.00 to 8.00
